Source: patent US5151517A, “Derivatives of tetrahydro-2,3,6,7,1H,5H,11H-(1)benzopyrano(6,7,8,i,j)quinolizinone-11 usable as markers for organic compounds, particularly biological compounds with a view to their detection by chemiluminescence or fluorescence” (Laboratories Eurobio, priority 1989, dated 1992)

How the values were obtained:
[1] = Fluorescence measurements (quantum efficiency vs quinine disulphate, sensitivity); assay type: physicochemical; conditions: for S = fluorescence sensitivity: acetone/ethyl acetate 75:25; for RF = fluorescence quantum efficiency: acetone/ethyl acetate 75:25, 10^-6 mole/l coumarin, 20 ± 2° C., vs quinine disulphate
Protocol: The fluorescence measurements are carried out with a Perkin Elmer LS5 spectrifluorometer with 2 nm slit widths for two monochromators.
(§1) Fluorescence and Absorbance Measurements
(§2) These measurements were carried out at 20^+ 2° C. and the quantum efficiencies of fluorescence RF of coumarins-1, 311 and 102 were determined compared with quinine disulphate, whose fluorescence quantum efficiency is 0.546 using the Parker method described in Analyst, 85, 1960, p. 587 using a 2 mg/l quinine disulphate solution in 0.1N H2 SO4.
(§3) For the coumarins, use was made of a solution of acetone and ethyl acetate in a volume ratio of 75:25 with a 10^-6 mole/l coumarin concentration ensuring in each case an absorbance below 0.05.

[2] = Chemiluminescence measurements with TCPO and H2O2; assay type: physicochemical; conditions: TCPO = bis(trichloro-2,4,6 phenyl) oxalate; for RC = chemiluminescence quantum efficiency: 10^-3 mole/l coumarin, imidazole nitrate buffer pH 7.5; for RE = excitation efficiency: RC = Rex × RF
Protocol: (§4) The absorbance measurements were carried out with a Jobin Yvon JY3 spectrophotometer. The chemiluminescence measurements were obtained by using a Jobin Yvon JY4 spectrofluorimeter with 10 nm slit widths. The cell for the liquid samples is a 10×10 mm quart cell with a capacity of 3 ml and filled with 2 ml of solution, which corresponds to a real solution volume exposed to the photomultiplier of 1.35 ml.
(§5) In order to determine the chemiluminescence quantum efficiencies Rc, the intensity was estimated as a function of time at the emission maximum. When the intensity decrease is relatively low, the emission spectrum is plotted and then the intensity is followed as a function of time until it has dropped to 2% of the maximum intensity.
(§6) The other luminescence parameters are measured directly. These consist of the maximum intensity (lmax), the time for reaching the maximum intensity (Tmax) and the time for reaching half the maximum intensity following the maximum time (T1/2).
(§7) The chemi luminescence efficiency Rc is calculated by the Rauhut method described in J. Am. Chem. Soc., 88, 15, 1966, p.3604.
(§8) The excitation efficiency Rex is determined on the basis of the formula: […]
(§9) For chemiluminescence measurements with TCPO, to 1 ml of the solution containing 10^-3 mole/l of coumarin are added 0.5 ml of a 2·10^-3 mole/l TCPO solution in ethyl acetate, 0.5 ml of a 2·10^-2 mole/l H2 O2 solution in acetone and 10 μl of a 0.1 mole/l imidazole nitrate buffer at pH 7.5. When DNPO is used, to the same solution of coumarin in acetone are added 0.5 ml of a 10^-3 mole/l DNPO solution in ethyl acetate and 0.5 ml of a 10^-2 mole/l H2 O2 solution in acetone.

[3] = Chemiluminescence measurements with DNPO (printed DMPO in table 2) and H2O2; assay type: physicochemical; conditions: DMPO = bis(dinitro-2,4 phenyl)oxalate; for RC = chemiluminescence quantum efficiency: 10^-3 mole/l coumarin; for RE = excitation efficiency: RC = Rex × RF
Protocol: as §4, §5, §6, §7, §8, §9

[4] = Absorbance measurements (molecular extinction coefficient); assay type: physicochemical; conditions: acetone/ethyl acetate 75:25, 10^-6 mole/l coumarin
Protocol: as §4, §1, §2, §3

[5] = Storage stability of luminarine-7 in dimethyl formamide solution; assay type: physicochemical; conditions: -20° C., in the presence of P2O5
Protocol: (§10) Stirring takes place for 2 hours and then the dicyclohexylurea formed is filtered. The remaining product, luminarine-7, is kept in solution in dimethyl formamide.

[6] = Hydrosolubility of a dried aliquot of luminarine-7; assay type: physicochemical; conditions: dried aliquot portion
Protocol: as §10

[7] = Chemiluminescence with TCPO and H2O2 as a function of the coumarin-102 concentration; assay type: physicochemical; conditions: for Imax (maximum intensity) / RC × 10^4 (chemiluminescence efficiency) / T1/2 (time for reaching half the maximum intensity following the maximum time) / Tmax (time for reaching the maximum intensity): TCPO and H2O2
Protocol: The absorbance measurements were carried out with a Jobin Yvon JY3 spectrophotometer. The chemiluminescence measurements were obtained by using a Jobin Yvon JY4 spectrofluorimeter with 10 nm slit widths. The cell for the liquid samples is a 10×10 mm quart cell with a capacity of 3 ml and filled with 2 ml of solution, which corresponds to a real solution volume exposed to the photomultiplier of 1.35 ml. In order to determine the chemiluminescence quantum efficiencies Rc, the intensity was estimated as a function of time at the emission maximum. […] The other luminescence parameters are measured directly. These consist of the maximum intensity (lmax), the time for reaching the maximum intensity (Tmax) and the time for reaching half the maximum intensity following the maximum time (T1/2). The chemi luminescence efficiency Rc is calculated by the Rauhut method described in J. Am. Chem. […] When DNPO is used, to the same solution of coumarin in acetone are added 0.5 ml of a 10^-3 mole/l DNPO solution in ethyl acetate and 0.5 ml of a 10^-2 mole/l H2 O2 solution in acetone.

[8] = Comparison of fluorescence, absorbance and chemiluminescence properties of coumarin nuclei; assay type: physicochemical; conditions: compared with coumarine-1 and coumarine-311, tables 1 and 2
Protocol: The fluorescence measurements are carried out with a Perkin Elmer LS5 spectrifluorometer with 2 nm slit widths for two monochromators. The absorbance measurements were carried out with a Jobin Yvon JY3 spectrophotometer. The chemiluminescence measurements were obtained by using a Jobin Yvon JY4 spectrofluorimeter with 10 nm slit widths. The cell for the liquid samples is a 10×10 mm quart cell with a capacity of 3 ml and filled with 2 ml of solution, which corresponds to a real solution volume exposed to the photomultiplier of 1.35 ml. […] For the coumarins, use was made of a solution of acetone and ethyl acetate in a volume ratio of 75:25 with a 10^-6 mole/l coumarin concentration ensuring in each case an absorbance below 0.05. […] When DNPO is used, to the same solution of coumarin in acetone are added 0.5 ml of a 10^-3 mole/l DNPO solution in ethyl acetate and 0.5 ml of a 10^-2 mole/l H2 O2 solution in acetone.

[9] = Chemiluminescence as a function of the pH of the solution; assay type: physicochemical
Protocol: as §4, §5, §6, §7, §9
Table 4 gives the variations of the chemiluminescence efficiency, lmax, Tmax and T1/2, as a function of the pH of the solution. […] However, the values for Tmax and T1/2 decrease when the pH increases beyond 5.

[10] = reference standard; 2 mg/l in 0.1N H2SO4; cited from earlier work

Compound: CCN(CC)c1ccc2c(C)cc(=O)oc2c1 [COUMARINE-1, dimethylamino-7 methyl-4 coumarin]
- S = fluorescence sensitivity [1]: 57 10^3
- RF = fluorescence quantum efficiency [1]: 0.55
- RC = chemiluminescence quantum efficiency [2]: 0.37 10^2 E · mole^-1
- RE = excitation efficiency [2]: 0.67 10^2
- RC = chemiluminescence quantum efficiency [3]: 0.18 10^2 E · mole^-1
- RE = excitation efficiency [3]: 0.33 10^2
- ε = molecular extinction coefficient, 365 nm [4]: 38 000

Compound: Cc1cc(=O)oc2cc(N(C)C)ccc12 [COUMARINE-311, dimethylamino-7 methyl-4 coumarin]
- S = fluorescence sensitivity [1]: 40 10^3
- RF = fluorescence quantum efficiency [1]: 0.52
- RC = chemiluminescence quantum efficiency [2]: 0.17 10^2 E · mole^-1
- RE = excitation efficiency [2]: 0.32 10^2
- RC = chemiluminescence quantum efficiency [3]: 0.13 10^2 E · mole^-1
- RE = excitation efficiency [3]: 0.24 10^2
- ε = molecular extinction coefficient, 365 nm [4]: 26900 M⁻¹ cm⁻¹

Compound: O=C(CCC(=O)ON1C(=O)CCC1=O)NCCOCCOCCOCCOCCOCCNC(=O)Cc1cc(=O)oc2c3c4c(cc12)CCCN4CCC3 [luminarine-7]
- storage stability [5]: several months at -20 °C without any deterioration
- hydrosolubility [6]: total hydrosolubility

Compound: Cc1cc(=O)oc2c3c4c(cc12)CCCN4CCC3 [COUMARINE-102, tetrahydro-2,3,5,6,7,1H,5H,11H-(1)-benzopyrano(6,7,8-ij)methyl-9 quinolizinone-11]
- Imax (maximum intensity) ([7]; (C102) 1.4 × 10^-3): 301 A.U.
- RC × 10^4 (chemiluminescence efficiency) ([7]; (C102) 1.4 × 10^-3): 12.0 E · mole^-1
- T1/2 (time for reaching half the maximum intensity following the maximum time) ([7]; (C102) 1.4 × 10^-3): 6 s
- Tmax (time for reaching the maximum intensity) ([7]; (C102) 1.4 × 10^-3): 12 s
- Imax (maximum intensity) ([7]; (C102) 1.4 × 10^-6): 75 A.U.
- RC × 10^4 (chemiluminescence efficiency) ([7]; (C102) 1.4 × 10^-6): 4.14 E · mole^-1
- T1/2 (time for reaching half the maximum intensity following the maximum time) ([7]; (C102) 1.4 × 10^-6): 9 s
- Tmax (time for reaching the maximum intensity) ([7]; (C102) 1.4 × 10^-6): 12 s
- Imax (maximum intensity) ([7]; (C102) 1.4 × 10^-7): 31 A.U.
- RC × 10^4 (chemiluminescence efficiency) ([7]; (C102) 1.4 × 10^-7): 2.31 E · mole^-1
- T1/2 (time for reaching half the maximum intensity following the maximum time) ([7]; (C102) 1.4 × 10^-7): 7.2 s
- Tmax (time for reaching the maximum intensity) ([7]; (C102) 1.4 × 10^-7): 12 s
- Imax (maximum intensity) ([7]; (C102) 1.4 × 10^-8): 3.2 A.U.
- RC × 10^4 (chemiluminescence efficiency) ([7]; (C102) 1.4 × 10^-8): 0.40 E · mole^-1
- T1/2 (time for reaching half the maximum intensity following the maximum time) ([7]; (C102) 1.4 × 10^-8): 6 s
- Tmax (time for reaching the maximum intensity) ([7]; (C102) 1.4 × 10^-8): 12 s
- Imax (maximum intensity) ([7]; (C102) 1.4 × 10^-9): 0.3 A.U.
- RC × 10^4 (chemiluminescence efficiency) ([7]; (C102) 1.4 × 10^-9): 0.20 E · mole^-1
- T1/2 (time for reaching half the maximum intensity following the maximum time) ([7]; (C102) 1.4 × 10^-9): 4.8 s
- Tmax (time for reaching the maximum intensity) ([7]; (C102) 1.4 × 10^-9): 12 s
- chemiluminescence efficiency as a function of concentration ([7]; TCPO and H2O2, table 3): chemiluminescence efficiency increases with the coumar in-102 concentration
- fluorescence, absorbance and chemiluminescence properties [8]: better fluorescence, absorbance and chemiluminescece properties
- S = fluorescence sensitivity [1]: 36 10^3
- RF = fluorescence quantum efficiency [1]: 0.57
- RC = chemiluminescence quantum efficiency [2]: 0.37 10^2 E · mole^-1
- RE = excitation efficiency [2]: 0.65 10^2
- Imax (maximum intensity) ([9]; pH 4): 24 A.U.
- RC × 10^4 (chemiluminescence efficiency) ([9]; pH 4): 1.52 E · mole^-1
- T1/2 (time for reaching half the maximum intensity following the maximum time) ([9]; pH 4): 300 s
- Tmax (time for reaching the maximum intensity) ([9]; pH 4): 48 s
- Imax (maximum intensity) ([9]; pH 5): 17 A.U.
- RC × 10^4 (chemiluminescence efficiency) ([9]; pH 5): 1.58 E · mole^-1
- T1/2 (time for reaching half the maximum intensity following the maximum time) ([9]; pH 5): 360 s
- Tmax (time for reaching the maximum intensity) ([9]; pH 5): 60 s
- Imax (maximum intensity) ([9]; pH 6): 25 A.U.
- RC × 10^4 (chemiluminescence efficiency) ([9]; pH 6): 2.34 E · mole^-1
- T1/2 (time for reaching half the maximum intensity following the maximum time) ([9]; pH 6): 336 s
- Tmax (time for reaching the maximum intensity) ([9]; pH 6): 48 s
- Imax (maximum intensity) ([9]; pH 7): 110 A.U.
- RC × 10^4 (chemiluminescence efficiency) ([9]; pH 7): 2.23 E · mole^-1
- T1/2 (time for reaching half the maximum intensity following the maximum time) ([9]; pH 7): 108 s
- Tmax (time for reaching the maximum intensity) ([9]; pH 7): 24 s
- Imax (maximum intensity) ([9]; pH 8): 245 A.U.
- RC × 10^4 (chemiluminescence efficiency) ([9]; pH 8): 1.60 E · mole^-1
- T1/2 (time for reaching half the maximum intensity following the maximum time) ([9]; pH 8): 24 s
- Tmax (time for reaching the maximum intensity) ([9]; pH 8): 12 s
- RC = chemiluminescence quantum efficiency [3]: 0.26 10^2 E · mole^-1
- RE = excitation efficiency [3]: 0.45 10^2
- ε = molecular extinction coefficient, 365 nm [4]: 23000 M⁻¹ cm⁻¹

Compound: C=CC1CN2CCC1CC2C(O)c1ccnc2ccc(OC)cc12 (stereo not drawn) [quinine disulphate]
- fluorescence quantum efficiency [10]: 0.546
